# Values joined by “and” are separate entries in the source; they are usually repeats but may differ in a detail not shown here. Equal entries are not always repeated.
# What was measured:
# [1] = system: dog model of chronic heart failure; settings: cited from earlier work
# [2] = system: late INa in isolated murine ventricular myocytes; assay: Voltage-clamp determination of sodium current (late INa); format: cell-based, mouse; parameters: late INa (integrated from 5% of peak current to 40 ms after depolarization): unit not given here; settings: 10 μmol/L ranolazine extracellular; for late INa (integrated from 5% of peak current to 40 ms after depolarization): 15 min
# Experimental: Electrophysiological determination of sodium current: Voltage-clamp experiments were performed on isolated murine ventricular myocytes with an Axopatch 200B amplifier (Molecular Devices, Sunnyvale, Calif.) in whole cell configuration. Data acquisition was performed at a sampling rate of 20 kHz and filtered at 10 kHz. Data recording and analysis were done with the pClamp8 software suite (Molecular Devices) and OriginPro 8 (Originlab, Northampton, Mass.). All experiments were carried out at room temperature. Myocytes were plated on glass cover slips and were perfused with a low-sodium Tyrode solution containing the following (in mM): N-methyl-D-glucamine 100 (titrated to pH 7.4 with HCl), NaCl 15, tetramethylammonium chloride 20, CsC15, MgCl2 1, glucose 10, 4-aminopyridine 3, MnCl2 2, HEPES10, and CaCl2 1 (final pH 7.4, CsOH). Patch electrodes were pulled from capillaries purchased from Harvard Apparatus (Holliston, Mass.) using a model P-97 puller from Sutter Instruments (Novato, Calif.). Electrodes were filled with an electrode solution containing (in mM): CsCl 20, tetraethylammonium chloride 20, glutamic acid 80, NaCl 10, MgCl2 1, MgATP 5, Li2GTP 0.3, HEPES10, EGTA 10, CaCl2 0.13 (corresponding to [Ca^2+]free of <10 nM).^23 Electrode solution pH was adjusted to 7.2 with CsOH. Electrodes used for these experiments had access resistances between 1.0 and 1.5 MΩ.
# Ranolazine was provided as a crystalline solid by Gilead Sciences. Prior to experiments, a DMSO stock solution was prepared and diluted (minimum 100:1) directly into the Tyrode solution used for perfusion. Cells that were treated with ranolazine were exposed to the drug for 15 min prior to beginning voltage-clamp experiments.
# Voltage clamping studies: Voltage-clamp experiments were performed on isolated murine ventricular myocytes with an Axopatch 200B amplifier (Molecular Devices, Sunnyvale, Calif.) in whole cell configuration. Data acquisition was performed at a sampling rate of 20 kHz and filtered at 10 kHz. […]
# DOCA-salt mice = assay: Myofilament calcium sensitivity of fibers from mice chronically treated with ranolazine; format: in vivo, mouse; settings: fibers from hearts of DOCA-salt mice chronically treated with ranolazine vs. DOCA-salt mice
# Experimental: A special diet contained 5 mg ranolazine, 0.3 mg P450 inhibitor, and 0.25 mg red food color was pressed into a 1-g nutritionally complete grain-based tablet (Harlan, Madison, Wis.). The control diet contained 0.3 mg P450 inhibitor and 0.25 mg yellow food color pressed into the same type of 1-g tablets. DOCA-salt and sham mice consumed daily ˜1 g of the special diet from postoperative day 11 to 18. […] We also determined Ktr, which is a measure of the rate of re-entry of cross-bridges into force generating states.
# DOCA-salt and sham mice = assay: Echocardiography after chronic administration of ranolazine; format: in vivo, mouse; settings: for ES (%): chronic ranolazine in diet (5 mg per 1-g tablet, ~1 g daily) for 7 days
# Experimental: A special diet contained 5 mg ranolazine, 0.3 mg P450 inhibitor, and 0.25 mg red food color was pressed into a 1-g nutritionally complete grain-based tablet (Harlan, Madison, Wis.). The control diet contained 0.3 mg P450 inhibitor and 0.25 mg yellow food color pressed into the same type of 1-g tablets. DOCA-salt and sham mice consumed daily ˜1 g of the special diet from postoperative day 11 to 18.
# Mice were anesthetized, maintained at 37° C., and studied by echocardiography (Vevo 770, VisualSonics Inc, Toronto, Canada). M-mode images in the parasternal long axis and the left ventricle (LV) short-axis views at the mid-papillary level were taken. Measurements were averaged from three consecutive beats during expiration. LV inflow velocities (E and A waves) were interrogated by conventional pulsed-wave Doppler from the apical four-chamber view. The mitral annulus longitudinal velocities (Sm, E′, and A′) were determined by pulsed-wave tissue Doppler from the apical four-chamber view. Interpretation was done by a two investigators blinded to the treatment groups. First, baseline images were acquired. Subsequently to determine the acute effect, the mice were injected with 30 mg/kg ranolazine by intraperitoneal route, followed by a second echocardiogram 30 min later.
# In an additional set of experiments, we treated DOCA-salt mice with ranolazine for 7 days and measured diastolic function using echocardiography to evaluate the effect of chronic ranolazine therapy on myocardial function (Table 5).
# [3] = DOCA-salt mice, chronic ranolazine in diet, 7 days
# [4] = sham mice, chronic ranolazine in diet, 7 days
structure (smiles),measurement,setting,value
COc1ccccc1OCC(O)CN1CCN(CC(=O)Nc2c(C)cccc2C)CC1 (stereo not drawn) [ranolazine],LVEDP,[1],reduces LVEDP
same,late accumulated charge,[2]; DOCA-salt cardiomyocytes,did not affect the late accumulated charge
same,late INa (integrated from 5% of peak current to 40 ms after depolarization),[2]; DOCA-salt myocytes,0.1142±0.01272 and 0.114±0.013
same,late INa (integrated from 5% of peak current to 40 ms after depolarization),[2]; sham myocytes,0.1126±0.00406 and 0.113±0.004
same,maximal tension in response to Ca2+,DOCA-salt mice,significantly reduces maximal tension
same,ES (%),DOCA-salt and sham mice; DOCA-salt mice,53.3 ± 1.3%
same,E/A,DOCA-salt and sham mice; [3],1.84 ± 0.35
same,"E′, early septal mitral annulus velocity (TDI)",DOCA-salt and sham mice; [3],1.86 ± 0.13 cm/s
same,"Sm, systolic septal mitral annulus velocity (TDI)",DOCA-salt and sham mice; [3],1.82 ± 0.05 cm/s
same,ES (%),DOCA-salt and sham mice; sham mice,49.7 ± 4.9%
same,E/A,DOCA-salt and sham mice; [4],2.42 ± 0.42
same,E/E′,DOCA-salt and sham mice; [4],28.0 ± 3.45
same,"E′, early septal mitral annulus velocity (TDI)",DOCA-salt and sham mice; [4],2.11 ± 0.21 cm/s
same,E′/A′,DOCA-salt and sham mice; [4],1.03 ± 0.07
same,"Sm, systolic septal mitral annulus velocity (TDI)",DOCA-salt and sham mice; [4],2.04 ± 0.12 cm/s

# Reference: patent publication US20120214818A1, “METHODS OF TREATING DIASTOLIC DYSFUNCTION AND RELATED CONDITIONS” (THE BOARD OF TRUSTEES OF THE UNIVERSITY OF ILLINOIS, priority 2009, published 2012)
